pKi: −log10 of the molar value. Where two headings read alike, the source gives them in different places.
Legend:
[1] = target: T1, A1 receptor cell membrane (human origin) (Homo sapiens, UniProt P30542); experiment: Competitive inhibition constant (Ki) for adenosine A1 receptor, [3H]-DPCPX radioligand binding; details: [3H]-DPCPX 1.0 nM
T1 construct: purchased PerkinElmer ES-010-M400UA
T1 sequence (P30542 1-326): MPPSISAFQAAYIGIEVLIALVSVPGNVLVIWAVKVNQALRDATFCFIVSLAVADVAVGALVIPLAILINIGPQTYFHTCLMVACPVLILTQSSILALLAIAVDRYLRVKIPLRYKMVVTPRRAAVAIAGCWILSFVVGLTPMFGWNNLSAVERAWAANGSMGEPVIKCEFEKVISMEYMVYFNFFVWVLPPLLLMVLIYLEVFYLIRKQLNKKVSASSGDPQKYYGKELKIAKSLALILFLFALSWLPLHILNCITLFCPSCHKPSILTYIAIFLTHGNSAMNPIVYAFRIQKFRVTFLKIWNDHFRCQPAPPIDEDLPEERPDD
Description: Experimental Example 1: Determination of the Competitive Inhibition Constant (Ki) for Adenosine A1 and A2a Receptors
[^3H]-DPCPX: PerkinElmer, NET974250UC
A1 receptor cell membrane (human origin): PerkinElmer, ES-010-M400UA
A1 test buffer: 25 mM HEPES, 5 mM MgCl2, 1 mM CaCl2, 100 mM NaCl, pH7.4
A1 washing buffer: 25 mM HEPES, 5 mM MgCl2, 1 mM CaCl2, 100 mM NaCl, pH7.4
(§1) The A1 receptor cell membrane was diluted to 0.025 μg/μl with the A1 test buffer and the A2a receptor cell membrane was diluted to 0.05 μg/μl with the A2a test buffer to obtain an A1 receptor cell membrane dilution and an A2a receptor cell membrane dilution.
(§2) The tested compound and CGS15943 were gradiently diluted with DMSO. 1 μl test compound, high-value control (0.5% DMSO), low-value control (1000 nM CGS15943) were added to a 96-well plate, wherein each well was added with 100 μl A1 receptor cell membrane dilution (containing 2.5 μg cell membrane) to obtain an A1 detection plate. Through the same steps, 100 μl A2a receptor cell membrane dilution (containing 5.0 μg cell membrane) was added to each well of a 96-well plate to obtain an A2a detection plate.
100 μl of radioisotope-labelled ligand [^3H]-DPCPX (diluted in A1 test buffer, working concentration 1.0 nM) was added to the A1 detection plate, and 100 μl of radioisotope-labelled ligand [^3H]-CGS-21680 (diluted in A2a test buffer, working concentration 6.0 nM) was added to the A2a detection plate. The A1 and A2a detection plates were sealed with a tap, and incubated at room temperature for 1 h and 2 h, respectively.
(§3) Unifilter-96 GF/C filter plate was prepared. The Unifilter-96 GF/C filter plate was added with 50 μl 0.3% PEI in each well, and incubated at room temperature for no less than 0.5 h.
(§4) After the incubation, the reaction solutions in the A1 detection plate and the A2a detection plate were transferred to two Unifilter-96 GF/C filter plates. The filter plates were washed with the corresponding pre-cooled washing buffers, then oven dried. After sealing the bottom of the filter plates, 50 μl of Microscint 20 cocktail scintillation fluid was added. After sealing the top of the filter plates, the plates were read in the counter MicroBeta2 Reader.
(§5) Data analysis: The inhibition rate was calculated according to the following formula:
(§6) Inhibition rate %=100−(the signal value of the tested wells−the signal average of the low-value control)/(the signal average of the high-value control−the signal average of the low-value control)*100.
(§7) IC50 was fitted by EXCEL XLfit. The competitive inhibition constant (Ki) was calculated according to the formula: Ki=IC50/(1+the concentration of the isotope-labelled ligands/Kd); Kd is the dissociation constant of the isotope-labeled ligands.

[2] = Pharmacokinetics and brain tissue distribution in rats, intragastric administration (PO); assay type: in vivo, male SD rats; details: rat; for AUC(0-t) / bioavailability: male, SD, plasma; for AUC(0-t) / capability to penetrate the blood-brain barrier / exposure to brain tissue (in words) / AUClast (brain) / Plasma AUClast/Brain AUClast: PO, 5 mg/kg; for AUC(0-t): read-out: AUClast (plasma); for AUClast (brain): brain tissue homogenate; for bioavailability: po, orally administered 5 mg/kg compared to intravenous 1 mg/kg
Description: (§8) Experimental Example 2: Pharmacokinetics (PK) and Brain Tissue Distribution Study in Rats
(§9) The compounds of the present invention and control compound 2 were administered to male SD rats by intravenous injection (IV) and intragastric administration (PO) respectively to study the pharmacokinetic characteristics.
(§10) The compounds of the present invention and control compound 2
(§11) synthesized according to the prior art process) were administered by IV and PO. IV and PO dosages were 1 mg/kg and 5 mg/kg, respectively. The vehicle for the IV administration of the compounds of the present invention was a mixture of 5% DMSO:5% Solutol (polyethylene glycol-15 hydroxystearate):90% physiological saline; and the vehicle for the IV administration of control compound 2 was a mixture of 10% DMSO:10% Solutol (polyethylene glycol-15 hydroxystearate):80% physiological saline. The vehicle for the PO administration of the compounds was 0.5% MC (sodium methylcellulose). Blood was collected before IV administration (0 h), and at time points of 0.083, 0.25, 0.5, 1, 2, 4, 6, 8, 24 h or longer (for example, adding time points of 32 and 48 h) after IV administration; and blood was collected before PO administration (0 h), and at time points of 0.25, 0.5, 1, 2, 4, 6, 8, 24 h or longer (for example, adding time points of 32 and 48 h) after PO administration. EDTA.K2 was used for anticoagulation of the blood, and a plasma sample was obtained after centrifugation. Brain tissue homogenates were taken at 0.25, 0.5, 1, and 8 hours after PO administration (3 animals for each time point). The plasma samples and brain tissue homogenate samples were stored at −80° C. Plasma samples and brain tissue homogenates were subjected to analysis by LC-MS/MS, after protein precipitation. The pharmacokinetic parameters were calculated by using non-compartmental model with WinNonlin 6.3 software.

[3] = target: T2, A2a receptor cell membrane (human origin) (Homo sapiens, UniProt P29274); experiment: Competitive inhibition constant (Ki) for adenosine A2a receptor, [3H]-CGS-21680 radioligand binding; details: for Ki(A1)/Ki(A2a): selectivity ratio A1 over A2a
T2 construct: purchased PerkinElmer RBHA2AM400UA
T2 sequence (P29274 whole entry): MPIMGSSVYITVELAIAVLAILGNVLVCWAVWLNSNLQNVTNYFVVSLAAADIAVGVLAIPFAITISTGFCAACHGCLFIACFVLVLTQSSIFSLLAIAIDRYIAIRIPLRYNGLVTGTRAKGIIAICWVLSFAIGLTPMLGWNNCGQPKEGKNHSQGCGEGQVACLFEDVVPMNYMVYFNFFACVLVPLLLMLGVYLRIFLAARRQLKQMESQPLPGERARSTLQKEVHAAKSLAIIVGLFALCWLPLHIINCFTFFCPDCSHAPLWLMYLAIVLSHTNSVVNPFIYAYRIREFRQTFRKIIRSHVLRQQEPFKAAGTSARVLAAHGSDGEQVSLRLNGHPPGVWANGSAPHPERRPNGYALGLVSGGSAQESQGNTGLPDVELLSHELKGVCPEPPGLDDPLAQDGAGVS
Description: A2a receptor cell membrane (human origin): PerkinElmer, RBHA2AM400UA
A2a test buffer: 50 mM Tris-HCl, 10 mM MgCl2, 1 mM EDTA, pH7.4
as §1, §2
The A1 and A2a detection plates were sealed with a tap, and incubated at room temperature for 1 h and 2 h, respectively.
as §3, §4, §5, §6, §7

[4] = Pharmacokinetics in rats, intravenous injection (IV); assay type: in vivo; details: male, SD, rat, 1 mg/kg, plasma
Description: as §8, §9, §10, §11

[5] = human A2a receptor cell membrane, [3H]-CGS-21680 6.0 nM, read-out: Ki(A2a)

Row | Compound | pKi [1] | AUC(0-t) [2] [ng·h/mL] | capability to penetrate the blood-brain barrier / exposure to brain tissue (in words) [2] | AUClast (brain) [2] | pKi [3] | Ki(A1)/Ki(A2a) [3] | AUC(0-t) [4] [ng·h/mL] | Cmax [4] [ng/mL] | bioavailability [2] [%] | Plasma AUClast/Brain AUClast [2] | pKi [3, 5]
1 | Cc1ncnc2ccc(-c3cc(-c4cnn(CCC(N)=O)c4)c(N)nc3-c3ccc(F)cc3)cc12 [Compound 20, 3-(4-(2-amino-6-(4-fluorophenyl)-5-(4-methylquinazolin-6-yl)-pyridin-3-yl)-1H-pyrazol-1-yl)propionamide] | 6.02 | 1900 | only very low exposure to brain tissue | undetectable | 7.85 | 68.8 | 2530 | 3330 | – | – | –
2 | Cc1ncnc2ccc(-c3nnc(N)nc3-c3ccc(F)cc3)cc12 [Control compound 2, reference compound] | – | 1200 | significantly stronger | 1013 (h*ng/g, | – | – | 518 | 913 | 46.5 | – | –
3 | Cc1ncnc2ccc(-c3cc(C(N)=O)c(N)nc3-c3ccc(F)cc3)cc12 [Compound 6, 2-amino-6-(4-fluorophenyl)-5-(4-methylquinazolin-6-yl)nicotinamide] | 5.66 | 24700 | – | 337 (h*ng/g, | – | 644.6 | 6660 | 1250 | 73.9 | 73/1 | 8.47
4 | Cc1ncnc2ccc(-c3cc(-c4cnn(CC(C)(C)O)c4)c(N)nc3-c3ccc(F)cc3)cc12 [Compound 21, 1-(4-(2-amino-6-(4-fluorophenyl)-5-(4-methylquinazolin-6-yl)-pyridin-3-yl)-1H-pyrazol-1-yl)-2-methylpropan-2-ol] | 5.85 | 8010 | – | 24.2 (h*ng/g, | – | 108.0 | 2340 | 1340 | 68.5 | 331/1 | 7.88
5 | Cc1ccnc2ccc(-c3cc(-c4cnn(CCC(N)=O)c4)c(N)nc3-c3ccc(F)cc3)cc12 [Compound 31, 3-(4-(2-amino-6-(4-fluorophenyl)-5-(4-methylquinolin-6-yl)pyridin-3-yl)-1H-pyrazol-1-yl)propionamide] | 6.84 | – | – | – | 8.80 | 91.0 | – | – | – | – | –
6 | Cc1ncnc2ccc(-c3c(C#N)cc(N)nc3-c3ccc(F)cc3)cc12 [Compound 11, 6-amino-2-(4-fluorophenyl)-3-(4-methylquinazolin-6-yl) isonicotinonitrile] | 6.69 | – | – | – | – | 146.5 | – | – | – | – | 8.85
7 | Cc1cc(-c2cc(-n3cc(C(N)=O)cn3)c(N)nc2-c2ccc(F)cc2)cc(Cl)n1 [Compound 26, 1-(6-amino-2′-chloro-2-(4-fluorophenyl)-6′-methyl-[3,4′-bipyridine]-5-yl)-1H-pyrazol-4-carboxamide] | 5.31 | – | – | – | – | – | – | – | – | – | 6.98
8 | Cc1cc(-c2cc(-c3cnn(CCC(N)=O)c3)c(N)nc2-c2ccc(F)cc2)cc(Cl)n1 [Compound 30, 3-(4-(6-amino-2′-chloro-2-(4-fluorophenyl)-6′-methyl-[3,4′-bipyridine]-5-yl)-1H-pyrazol-1-yl)propionamide] | 5.71 | – | – | – | 7.29 | 38.0 | – | – | – | – | –
9 | Cc1ncnc2ccc(-c3cc(C(=O)O)c(N)nc3-c3ccc(F)cc3)cc12 [Compound 4, 2-amino-6-(4-fluorophenyl)-5-(4-methylquinazolin-6-yl)nicotinic acid] | 5.12 | – | – | – | – | 293.5 | – | – | – | – | 7.59
10 | Cc1ncnc2ccc(-c3cc(C(N)=O)c(N)nc3-c3cc(F)cc(F)c3)cc12 [Compound 12, 2-amino-6-(3,5-difluorophenyl)-5-(4-methylquinazolin-6-yl) nicotinamide] | 6.43 | – | – | – | – | 54.9 | – | – | – | – | 8.17
11 | Cc1ncnc2ccc(-c3cc(-c4nnn[nH]4)c(N)nc3-c3ccc(F)cc3)cc12 [Compound 9, 6-(4-fluorophenyl)-5-(4-methylquinazolin-6-yl)-3-(1H-tetrazol-5-yl) pyridin-2-amine] | 5.97 | – | – | – | – | 85.3 | – | – | – | – | 7.90
12 | CNC(=O)Cn1cc(-c2cc(-c3ccc4ncnc(C)c4c3)c(-c3ccc(F)cc3)nc2N)cn1 [Compound 19, 2-(4-(2-amino-6-(4-fluorophenyl)-5-(4-methylquinazolin-6-yl)-pyridin-3-yl)-1H-pyrazol-1-yl)-N-methylacetamide] | 6.29 | 18800 | – | 24.2 (h*ng/g, | – | 51.8 | 3940 | 2960 | 95.2 | 776/1 | 8.00
13 | Cc1ncnc2ccc(-c3cc(-n4cc(C(N)=O)cn4)c(N)nc3-c3ccc(F)cc3)cc12 [Compound 24, 1-(2-amino-6-(4-fluorophenyl)-5-(4-methylquinazolin-6-yl)pyridin-3-yl)-1H-pyrazol-4-carboxamide] | 5.46 | – | – | – | – | 150.0 | – | – | – | – | 7.63
